Assay [1] concerns the target T1, Progesterone receptor (Homo sapiens) (UniProt P06401).
T1 sequence (whole entry): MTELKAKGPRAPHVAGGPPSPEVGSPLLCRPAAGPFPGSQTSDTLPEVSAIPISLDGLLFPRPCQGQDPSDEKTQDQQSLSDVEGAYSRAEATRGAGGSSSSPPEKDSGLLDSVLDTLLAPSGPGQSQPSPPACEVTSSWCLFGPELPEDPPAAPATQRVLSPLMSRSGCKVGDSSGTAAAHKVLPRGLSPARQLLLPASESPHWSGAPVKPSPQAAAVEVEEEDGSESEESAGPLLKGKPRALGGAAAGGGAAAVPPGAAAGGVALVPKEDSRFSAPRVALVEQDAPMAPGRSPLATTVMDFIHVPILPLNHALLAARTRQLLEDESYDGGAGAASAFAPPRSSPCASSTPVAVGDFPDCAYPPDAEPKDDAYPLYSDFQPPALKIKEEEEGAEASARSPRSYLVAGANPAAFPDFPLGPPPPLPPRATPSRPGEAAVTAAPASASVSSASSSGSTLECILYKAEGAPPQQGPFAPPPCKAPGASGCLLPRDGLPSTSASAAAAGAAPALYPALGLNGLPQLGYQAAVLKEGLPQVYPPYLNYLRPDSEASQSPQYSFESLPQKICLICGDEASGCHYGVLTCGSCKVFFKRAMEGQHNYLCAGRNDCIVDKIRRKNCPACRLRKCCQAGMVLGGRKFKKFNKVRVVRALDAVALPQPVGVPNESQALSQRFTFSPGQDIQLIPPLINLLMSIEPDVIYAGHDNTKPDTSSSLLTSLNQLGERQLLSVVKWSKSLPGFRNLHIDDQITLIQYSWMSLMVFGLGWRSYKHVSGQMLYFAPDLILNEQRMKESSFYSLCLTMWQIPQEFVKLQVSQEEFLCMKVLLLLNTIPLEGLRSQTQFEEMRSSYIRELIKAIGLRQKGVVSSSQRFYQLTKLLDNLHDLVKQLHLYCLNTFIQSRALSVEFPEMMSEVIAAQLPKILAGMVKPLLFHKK
Description: (§1) Antagonist activity against human Progesterone receptor by displacement of radioligand

The next assay deals with T2, Estrogen receptor (Homo sapiens, UniProt P03372).
T2 sequence (P03372 whole entry): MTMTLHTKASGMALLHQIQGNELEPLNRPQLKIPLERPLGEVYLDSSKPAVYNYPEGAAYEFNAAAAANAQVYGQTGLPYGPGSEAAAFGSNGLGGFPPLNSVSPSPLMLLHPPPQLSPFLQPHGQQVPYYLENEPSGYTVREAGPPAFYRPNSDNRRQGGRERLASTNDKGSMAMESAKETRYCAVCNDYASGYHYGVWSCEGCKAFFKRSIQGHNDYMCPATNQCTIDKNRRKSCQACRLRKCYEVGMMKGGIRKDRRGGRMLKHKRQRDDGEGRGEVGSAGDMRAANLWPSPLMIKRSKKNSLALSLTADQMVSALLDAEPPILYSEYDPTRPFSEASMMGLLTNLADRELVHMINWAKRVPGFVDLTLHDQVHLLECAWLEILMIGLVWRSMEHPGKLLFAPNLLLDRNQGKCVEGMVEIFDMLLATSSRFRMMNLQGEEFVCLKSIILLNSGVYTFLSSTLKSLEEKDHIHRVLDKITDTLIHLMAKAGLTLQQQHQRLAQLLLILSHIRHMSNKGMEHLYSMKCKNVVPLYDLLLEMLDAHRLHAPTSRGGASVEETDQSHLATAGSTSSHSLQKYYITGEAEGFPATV
Put plainly: Displacement of radioligand from human Estrogen receptor alpha.

Assay [2] concerns the target T3, Mineralocorticoid receptor (Homo sapiens) (UniProt P08235).
T3 sequence (whole entry): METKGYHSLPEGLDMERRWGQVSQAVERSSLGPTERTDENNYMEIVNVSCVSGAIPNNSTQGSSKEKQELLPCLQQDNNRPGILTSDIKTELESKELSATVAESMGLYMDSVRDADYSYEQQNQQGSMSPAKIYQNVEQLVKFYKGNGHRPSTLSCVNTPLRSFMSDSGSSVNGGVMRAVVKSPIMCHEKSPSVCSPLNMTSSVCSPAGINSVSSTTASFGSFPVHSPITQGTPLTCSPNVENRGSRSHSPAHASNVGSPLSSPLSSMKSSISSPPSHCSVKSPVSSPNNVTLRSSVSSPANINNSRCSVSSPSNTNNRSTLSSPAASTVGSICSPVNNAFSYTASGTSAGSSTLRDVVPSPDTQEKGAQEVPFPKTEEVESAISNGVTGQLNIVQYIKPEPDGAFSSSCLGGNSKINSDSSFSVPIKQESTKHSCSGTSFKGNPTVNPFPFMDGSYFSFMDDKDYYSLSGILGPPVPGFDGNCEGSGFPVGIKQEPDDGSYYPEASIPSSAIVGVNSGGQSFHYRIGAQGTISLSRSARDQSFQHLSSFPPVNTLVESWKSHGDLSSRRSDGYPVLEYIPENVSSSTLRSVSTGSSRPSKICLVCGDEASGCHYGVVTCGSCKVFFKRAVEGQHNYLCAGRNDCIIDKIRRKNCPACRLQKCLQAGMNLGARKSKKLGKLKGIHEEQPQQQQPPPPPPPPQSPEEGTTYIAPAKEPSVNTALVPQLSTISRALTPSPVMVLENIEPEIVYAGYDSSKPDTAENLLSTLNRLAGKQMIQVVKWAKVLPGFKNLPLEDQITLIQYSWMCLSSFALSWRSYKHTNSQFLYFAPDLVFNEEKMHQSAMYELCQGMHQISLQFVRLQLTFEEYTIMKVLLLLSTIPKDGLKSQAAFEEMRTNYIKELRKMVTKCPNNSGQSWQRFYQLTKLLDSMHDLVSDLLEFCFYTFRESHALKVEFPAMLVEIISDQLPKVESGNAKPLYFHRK
The conditions noted are these: 1 uM.
Description: Antagonist activity against human mineralocorticoid receptor as displacement of radioligand, percent inhibition at 1 uM

Assay [3] has as its target T1, Progesterone receptor (Homo sapiens). This is another data set of the same source.
Description: as §1
Assay [4] concerns the target T3, Mineralocorticoid receptor (Homo sapiens). The assay can be described thus: Antagonist activity against human mineralocorticoid receptor as displacement of radioligand. The class given is functional.

Molecules are shown by their SMILES. Bounds are passed on as bounds.

As a reminder, the Ki is a measure of affinity in units of concentration, obtained from inhibition or displacement. High values mean lower affinity, low ones higher affinity. One may read the inhibition as the share of the control response that was lost under treatment.

On to `CC#C[C@]1(O)CCC2C3CCC4=CC(=O)CC[C@]4(Cc4ccc(C)cc4)C3=CC[C@@]21C` (stereo not given in full), for which the Kif in assay [1] was greater than 1000 nM. At Estrogen receptor, this compound came in with a Ki greater than 10 µM. The same compound had an inhibition in assay [2] of 0%.

`Oc1ccc2c(c1)CC[C@@H]1C[C@@](O)(C#CCl)CC[C@@]21Cc1ccccc1` gave a Kif in assay [3] greater than 1000 nM. In turn, `CC#C[C@@]1(O)CC[C@@]2(Cc3ccccc3)c3ccc(O)cc3CC[C@@H]2C1` returned a Kif in assay [4] greater than 1000 nM.

The values are drawn from ChEMBL document CHEMBL1135457 (J Med Chem, 2002).
